The target of one data set is T1, CA VI (Homo sapiens, UniProt P23280).
T1 construct: made in house
The data set can be described thus: Fluorescent thermal shift assay (FTSA), CA VI. As to conditions: FTSA, pH 7.0, 37 °C; read-out: Compound Dissociation Constants Kd for CA VI. It counts as binding.

The target of another data set is T2, CA I (Homo sapiens, UniProt P00915).
T2 construct: made in house
The data set can be described thus: Fluorescent thermal shift assay (FTSA), CA I. Type of data set: binding.

A further data set has as its target T3, CA VII (Homo sapiens, UniProt P43166).
T3 construct: made in house
The data set can be described thus: Fluorescent thermal shift assay (FTSA), CA VII. It counts as binding.

A further data set addresses T4, CA II (Homo sapiens, UniProt P00918).
T4 construct: made in house
The data set can be described thus: Fluorescent thermal shift assay (FTSA), CA II. Type of data set: binding. As to conditions: pH 7.0, 37 °C, read-out: Compound Dissociation Constants Kd for CA II.

A further data set addresses T5, CA XIII (Homo sapiens, UniProt Q8N1Q1).
T5 construct: made in house
The data set can be described thus: Fluorescent thermal shift assay (FTSA), CA XIII. It counts as binding. As to conditions: FTSA, pH 7.0, 37 °C; read-out: Compound Dissociation Constants Kd for CA XIII.

The next data set has as its target T6, CA XII (Homo sapiens, UniProt O43570).
T6 construct: made in house
Put plainly: Fluorescent thermal shift assay (FTSA), CA XII. The settings on record: FTSA, pH 7.0, 37 °C; read-out: Compound Dissociation Constants Kd for CA XII. It counts as binding.

Setting [1] is: FTSA, pH 7.0, 37 °C, read-out: Compound Dissociation Constants Kd for CA I.
The mark [2] stands for this setting: FTSA, pH 7.0, 37 °C, read-out: Compound Dissociation Constants Kd for CA VII.

This note sets out measurements from PMC6271771, “4-Amino-substituted Benzenesulfonamides as Inhibitors of Human Carbonic Anhydrases” (Molecules, 2014).

The structures appear in SMILES notation. Several values for one entry are separate records, joined by “and”; a condition that tells them apart may be missing. Equal values may be shown once. Read-outs that look alike come from different tables or passages of the source.

T2 sequence (P00915 whole entry): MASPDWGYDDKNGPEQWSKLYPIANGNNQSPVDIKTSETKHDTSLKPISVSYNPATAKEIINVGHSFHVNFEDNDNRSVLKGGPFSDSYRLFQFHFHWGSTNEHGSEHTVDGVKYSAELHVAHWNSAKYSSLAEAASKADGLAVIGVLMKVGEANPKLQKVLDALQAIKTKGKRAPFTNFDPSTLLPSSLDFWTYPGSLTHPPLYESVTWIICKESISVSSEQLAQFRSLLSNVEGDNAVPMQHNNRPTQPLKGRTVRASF
T5 sequence (Q8N1Q1 whole entry): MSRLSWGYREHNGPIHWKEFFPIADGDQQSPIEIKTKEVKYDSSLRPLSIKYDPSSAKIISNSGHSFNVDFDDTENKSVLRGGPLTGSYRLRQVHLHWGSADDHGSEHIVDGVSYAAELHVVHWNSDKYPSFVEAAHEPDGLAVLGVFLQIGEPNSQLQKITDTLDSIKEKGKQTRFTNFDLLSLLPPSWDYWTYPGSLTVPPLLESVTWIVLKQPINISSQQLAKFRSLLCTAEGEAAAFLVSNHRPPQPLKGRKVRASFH
T6 sequence (O43570 30-289 limits assumed): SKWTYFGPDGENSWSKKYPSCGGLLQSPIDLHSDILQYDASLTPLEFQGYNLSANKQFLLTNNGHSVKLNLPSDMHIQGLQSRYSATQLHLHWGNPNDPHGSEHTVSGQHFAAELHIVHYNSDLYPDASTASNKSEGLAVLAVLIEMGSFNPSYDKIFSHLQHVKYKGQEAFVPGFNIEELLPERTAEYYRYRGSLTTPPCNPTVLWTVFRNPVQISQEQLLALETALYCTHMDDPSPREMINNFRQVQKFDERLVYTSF
T1 sequence (P23280 18-308): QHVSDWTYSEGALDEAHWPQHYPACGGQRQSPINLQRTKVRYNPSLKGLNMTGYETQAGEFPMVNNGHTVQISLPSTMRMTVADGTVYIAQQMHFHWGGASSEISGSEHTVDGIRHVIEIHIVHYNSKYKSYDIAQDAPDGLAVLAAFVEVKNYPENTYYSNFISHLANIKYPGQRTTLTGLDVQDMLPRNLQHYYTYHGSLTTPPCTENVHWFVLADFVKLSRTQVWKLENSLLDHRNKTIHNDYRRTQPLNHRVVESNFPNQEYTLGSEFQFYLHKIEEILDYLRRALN
T3 sequence (P43166 whole entry): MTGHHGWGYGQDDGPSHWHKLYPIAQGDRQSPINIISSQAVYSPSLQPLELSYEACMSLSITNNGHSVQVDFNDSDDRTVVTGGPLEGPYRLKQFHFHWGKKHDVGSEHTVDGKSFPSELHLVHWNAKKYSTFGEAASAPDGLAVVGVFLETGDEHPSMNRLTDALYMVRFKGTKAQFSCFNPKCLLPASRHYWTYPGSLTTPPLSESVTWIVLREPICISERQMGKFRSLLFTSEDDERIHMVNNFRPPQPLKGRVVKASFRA

As a reminder, the Kd is a measure of binding affinity in units of concentration. Consider `NS(=O)(=O)c1ccccc1` [BSA, benzenesulfonamide], for which the Kd at CA VI is 14 µM.
Consider `NS(=O)(=O)c1ccc(NCCC(=O)O)cc1` [Compound 3, 3-[(4-Sulfamoylphenyl)amino]propanoic Acid], for which the equilibrium dissociation constant (Kd) turned out to be 40 µM at CA I (setting [1]); 22.2 µM on CA VII (setting [2]); 62.5 µM on CA VI; 12.5 µM on CA II; 33.3 µM on CA XIII; 9.5 µM at CA XII.
For `CCSC(=NS(=O)(=O)c1ccc(NCCC(=O)O)cc1)SCC` [Compound 4, 3-[(4-{[Bis(ethylthio)methylene]sulfamoyl}phenyl)amino]propanoic Acid], the Kd on CA I (setting [1]) is > 200 µM; at CA VII (setting [2]), > 200 µM; at CA VI, > 200 µM; on CA II, 40 µM; on CA XIII, > 200 µM; on CA XII, > 200 µM.
For `NS(=O)(=O)c1ccc(N2CCC(=O)NC2=O)cc1` [Compound 5, 4-(2,4-Dioxo-1,3-diazinan-1-yl)benzene-1-sulfonamide], the Kd at CA I (setting [1]) was 3.85 µM; on CA VII (setting [2]), 1.54 µM; on CA VI it was 12.5 µM; on CA II, 0.83 µM and 0.833 µM; at CA XIII it was 8.33 µM; on CA XII, 5.56 µM.
With `NS(=O)(=O)c1ccc(N2CCC(=O)NC2=S)cc1` [Compound 6, 4-(4-Oxo-2-sulfanylidene-1,3-diazinan-1-yl)benzene-1-sulfonamide], the dissociation constant Kd on CA I (setting [1]) was 1.11 µM; at CA VII (setting [2]) it was 1.61 µM; on CA VI it was 8.3 µM; at CA II, 0.67 µM and 0.667 µM; at CA XIII, 2.86 µM; on CA XII, 5.56 µM.
Consider `COC(=O)CCNc1ccc(S(N)(=O)=O)cc1` [Compound 7, Methyl-3-[(4-sulfamoylphenyl)amino]propanoate], for which the Kd at CA I is 35.7 µM; on CA VII, 35.7 µM; on CA VI, 71.4 µM; on CA II, 9.1 µM; at CA XIII, 58.8 µM; on CA XII, 33.3 µM.
Consider `NNC(=O)CCNc1ccc(S(N)(=O)=O)cc1` [Compound 8, 4-{[(2-Hydrazinecarbonyl)ethyl]amino}benzene-1-sulfonamide], for which the equilibrium dissociation constant (Kd) turned out to be 55.6 µM on CA I (setting [1]); 28.6 µM on CA VII (setting [2]); 62.5 µM on CA VI; 10.5 µM at CA II; 76.9 µM on CA XIII; 33.3 µM at CA XII.
As to `NC(=S)NNC(=O)CCNc1ccc(S(N)(=O)=O)cc1` [Compound 9, N-(Carbamothioylamino)-3-[(4-sulfamoylphenyl)amino]propanamide], the Kd amounted to 58.8 µM on CA I (setting [1]); 28.6 µM on CA VII (setting [2]); 50 µM at CA VI; 10 µM at CA II; 76.9 µM on CA XIII; 33.3 µM at CA XII.
With `Nc1nnc(CCNc2ccc(S(N)(=O)=O)cc2)s1` [Compound 10, 4-{[2-(5-Amino-1,3,4-thiadiazol-2-yl)ethyl]amino}benzene-1-sulfonamide], the Kd worked out at 170 µM at CA I (setting [1]); 100 µM at CA VII (setting [2]); 140 µM at CA VI; 20 µM on CA II; 83 µM at CA XIII; 130 µM at CA XII. The “times more weakly bound to CA I than SA” value at CA I (ratio of Kd, FTSA) stood at 1.7 times.
In general, melting point refers to the temperature of the solid-liquid transition. `CC(C)=NNC(=O)CCNc1ccc(S(N)(=O)=O)cc1` [Compound 11, 4-{[2-(N'-Propan-2-ylidenehydrazinecarbonyl)ethyl]amino}benzene-1-sulfonamide] gave a melting point of 216 to 217 °C. Further, the Kd at CA I (setting [1]) was determined as 45.5 µM. For the same compound, the equilibrium dissociation constant (Kd) on CA VII (setting [2]) was 28.6 µM. In addition, the Kd at CA VI is 71.4 µM. Moreover, the Kd on CA II is 7.14 µM. Moreover, the Kd on CA XIII came to 50 µM. For the same compound, at CA XII, the Kd was determined as 33.3 µM.
For the compound `CC(=NNC(=O)CCNc1ccc(S(N)(=O)=O)cc1)c1ccccc1` [Compound 12, 4-{(2-[N'-(1-Phenylethylidene)hydrazinecarbonyl]ethyl}amino]benzene-1-sulfonamide], the melting point was in the range of 185 to 186 °C. In addition, the Kd on CA I (setting [1]) is 15.4 µM. For the same compound, the dissociation constant (Kd) at CA VII (setting [2]) turned out to be 12.5 µM. The Kd on CA VI was determined as 25 µM. Besides, the Kd on CA II amounted to 1.85 µM. Moreover, at CA XIII, the Kd was found to be 5.56 µM. For the same compound, the Kd on CA XII was found to be 33.3 µM.
With `NS(=O)(=O)c1ccc(NCCC(=O)NN=C(c2ccccc2)c2ccccc2)cc1` [Compound 13, 4-({2-[N'-(Diphenylmethylidene)hydrazinecarbonyl]ethyl}amino)benzene-1-sulfonamide], the melting point was 170 to 171 °C. Besides, at CA I (setting [1]), the Kd amounted to 11.5 µM. The dissociation constant Kd at CA VII (setting [2]) is 16.7 µM. Besides, the equilibrium dissociation constant (Kd) at CA VI came to 25 µM. Besides, at CA II, the equilibrium dissociation constant (Kd) was determined as 1.43 µM. For the same compound, on CA XIII, the dissociation constant (Kd) came out at 4.35 µM. In addition, the Kd at CA XII was 50 µM.
With `Cc1ccc(C)n1NC(=O)CCNc1ccc(S(N)(=O)=O)cc1` [Compound 19], the Kd on CA I (setting [1]) is 16.7 µM; on CA VII (setting [2]), 11.1 µM; on CA VI, 25 µM; on CA II, 2 µM; at CA XIII it was 6.25 µM; on CA XII it was 28.6 µM.
On to `NS(=O)(=O)c1ccc(NCCC(=O)NNC(=O)Nc2ccccc2)cc1` [Compound 20, N-[(Phenylcarbamoyl)amino]-3-[(4-sulfamoylphenyl)amino]propanamide], for which the dissociation constant Kd on CA I (setting [1]) was determined as 28.6 µM; on CA VII (setting [2]), 12.5 µM; at CA VI it was 7.1 µM; at CA II, 4 µM; at CA XIII, 18.5 µM; on CA XII it was 1.85 µM.
`NS(=O)(=O)c1ccc(NCCC(=O)NNC(=S)Nc2ccccc2)cc1` [Compound 21, N-[(Phenylcarbamothioyl)amino]-3-[(4-sulfamoylphenil)amino]propanamide]: the Kd came to 9.09 µM on CA I (setting [1]); 5.56 µM at CA VII (setting [2]); 8.3 µM at CA VI; 4 µM at CA II; 9.09 µM at CA XIII; 5.56 µM at CA XII.
Consider `NS(=O)(=O)c1ccc(NCCc2n[nH]c(=S)o2)cc1` [Compound 24, 4-{[2-(5-Sulfanylidene-4,5-dihydro-1,3,4-oxadiazol-2-yl)ethyl]amino}benzene-1-sulfonamide], for which the Kd at CA I (setting [1]) was found to be 12.5 µM; on CA VII (setting [2]), 4.55 µM; on CA VI, 33.3 µM; on CA II it was 4.55 µM; on CA XIII it was 26.3 µM; on CA XII, 5.88 µM.
With `CCSc1nnc(CCNc2ccc(S(N)(=O)=O)cc2)o1` [Compound 25, 4-({2-[5-(Ethylsulfanyl)-1,3,4-oxadiazol-2-yl]ethyl}amino)benzene-1-sulfonamide], the dissociation constant Kd at CA I (setting [1]) is 5.88 µM; on CA VII (setting [2]), 5.6 µM; on CA VI, 28.6 µM; on CA II, 1.18 µM; at CA XIII it was 3.33 µM; at CA XII, 10.5 µM.
Consider `CN(C)/N=N/c1ccc(S(N)(=O)=O)cc1` [Compound 26], for which the Kd on CA I (setting [1]) is 0.1 µM; on CA VII (setting [2]), 0.769 µM; on CA VI, 13.3 µM; on CA II, 0.181 µM; at CA XIII, 0.4 µM; on CA XII it was 2.7 µM.
On to `CCN(CC)/N=N/c1ccc(S(N)(=O)=O)cc1` [Compound 27], for which the dissociation constant (Kd) turned out to be 0.0133 µM on CA I (setting [1]); 0.2 µM on CA VII (setting [2]); 13.3 µM at CA VI; 0.0714 µM at CA II; 0.1 µM on CA XIII; 0.588 µM at CA XII.
With `NS(=O)(=O)c1ccc(/N=N/N2CCCC2)cc1` [Compound 28], the Kd came to 0.0333 µM at CA I (setting [1]); 0.454 µM on CA VII (setting [2]); 13.3 µM at CA VI; 0.133 µM on CA II; 0.167 µM at CA XIII; 1.81 µM at CA XII.
`NS(=O)(=O)c1ccc(/N=N/N2CCOCC2)cc1` [Compound 29]: the Kd at CA I (setting [1]) turned out to be 0.029 µM; on CA VII (setting [2]) it was 0.4 µM; at CA VI, 11.8 µM; at CA II, 0.1 µM; on CA XIII, 0.222 µM; at CA XII it was 3.3 µM.
Turning to `NS(=O)(=O)c1ccc(/N=N/N2CCCCC2)cc1` [Compound 30], the dissociation constant Kd is 0.00667 µM at CA I (setting [1]); 0.12 µM on CA VII (setting [2]); 10 µM at CA VI; 0.0625 µM on CA II; 0.0667 µM at CA XIII; 0.77 µM on CA XII. The “selectivity: bound to CA I times stronger than to CA II” value at CA I (ratio of FTSA Kd) is reported as 9.4 times. In addition, the “selectivity: bound to CA I times stronger than to CA VI” value at CA I (ratio of FTSA Kd) came out at 1500 times. For the same compound, on CA I (ratio of FTSA Kd), the “selectivity: bound to CA I times stronger than to CA VII” value came out at 18 times. The “selectivity: bound to CA I times stronger than to CA XII” value on CA I (ratio of FTSA Kd) is 115 times. Moreover, the “selectivity: bound to CA I times stronger than to CA XIII” value at CA I (ratio of FTSA Kd) is listed as 10 times.
On to `NS(=O)(=O)c1ccc(/N=N/SCCO)cc1` [Compound 32], for which the Kd turned out to be 0.0333 µM at CA I (setting [1]); 0.286 µM on CA VII (setting [2]); 3.2 µM at CA VI; 0.0667 µM on CA II; 1.4 µM on CA XIII; 2 µM at CA XII. Besides, the “CA I binding in the presence (32) versus absence (34) of the diazo group” value at CA I (comparison of Kd of 32 and 34) is recorded as “about six-fold stronger”.
On to `NCCS/N=N/c1ccc(S(N)(=O)=O)cc1` [Compound 33], for which the equilibrium dissociation constant (Kd) on CA I (setting [1]) was 0.5 µM; at CA VII (setting [2]) it was 1 µM; on CA VI, 8.3 µM; on CA II, 0.278 µM; on CA XIII, 2.86 µM; on CA XII, 6.25 µM.
